From patent publication US20260167972A1, “AMINO ACID DERIVATIVES AS NOVEL DELIVERY AGENTS FOR FUNCTIONAL DELIVERY OF OLIGONUCLEOTIDES” (University of Rochester, priority 2022, published 2026)

How the values were obtained:
FITC-siRNA = assay: Slot blot filtration binding affinity assay; conditions: binding to siRNA (FITC-siRNA); average of three measurements ± standard deviation
Description: The binding affinity (Kd) of N-X-Phe-DAP derivatives to siRNA was next characterized to determine how the chemical functionality of the Phe derivatives impacts siRNA interactions. Comparative binding affinity (Kd) of N-X-Phe-DAP derivatives to fluorescently labeled FITC-siRNA was determined using a slot blot filtration assay (Table 2). […] Therefore, the decrease in binding affinity of Fmoc-F5-Phe-DAP for siRNA is likely due to competition between siRNA binding and self-assembly.
Slot Blot Binding Affinity Measurements (see FIGS. 39-48): Nitrocellulose (Bio-Rad, #1620112) and nylon membranes (VWR, #95038-400) were soaked in 100 mM Tris-HCl buffer for 20 minutes. The membranes were then stacked on two sheets of Bio-Rad SF thick filter paper (#1620161) in a Bio-Rad SF 48-well slot blot apparatus. 200 μL of 100 mM Tris-HCl buffer was added to each well to test for even vacuum distribution and for membrane rehydration three times. N-X-Phe-DAP derivatives were prepared in concentrations ranging from 4000 μM to 0 μM and incubated with FITC-siRNA (6.5 μL, 1 μM) for 30 minutes in the dark. 40 μL of each sample, in addition to 200 μL Tris-HCl buffer was run in triplicate and the apparatus was covered with aluminum foil for 20 minutes. The vacuum was opened, allowing for samples in the wells to penetrate the membranes. After closing the vacuum, 200 μL of Tris-HCl buffer was added to rinse each well followed by re-opening of the vacuum three times. Membranes were then dried and imaged on Bio-Rad ChemiDoc MS. Fluorescence intensity density measurements were made using Image J. The fraction bound of siRNA was calculated using the following equation, where Initro is the fluorescence intensity measured from the nitrocellulose membrane and Inylon is the fluorescence intensity measured from the nylon membrane:
This equation is as follows where Y is the fraction bound, X is the N-X-Phe-DAP concentration (μM), Bmax is the maximum binding, Kd is the binding affinity, and h is the Hill slope: […]

[1] = system: A549 lung adenocarcinoma cells; assay: Cellular uptake of FITC-siRNA by fluorescence microscopy; format: cell-based, human; conditions: A549 cells dosed 4 hours; green fluorescence, FIG. 5
Description: The N-X-Phe-DAP derivatives facilitate functional delivery of siRNA. N-X-Phe-DAP derivatives (100 μM) were incubated with a fluorescently labelled siRNA (FITC-siRNA, 600 nM) for 30 minutes in the dark followed by dilution into DMEM. A549 lung carcinoma cells were then dosed with these solutions for 4 hours, after which N-X-Phe-DAP/siRNA cellular uptake was visualized by confocal microscopy to visual FITC-siRNA in fixed cells in which the nuclei had been stained with DAPI nuclear stain (FIG. 5). Translocation of siRNA with the N-X-Phe-DAP derivatives was compared with Lipofectamine by observing the presence of green fluorescence (FITC-siRNA) in the images.
Sample Preparation for Cell-Based Experiments: For delivery analysis and functional knockdown, N-X-Phe-DAP derivatives (10 μL, 1 mM) or Lipofectamine 3000 (6 μL) was mixed with TTF-1 siRNA (Santa Cruz Biotechnology sc-36756, 6 μL, 10 μM) in Ultrapure™ DNase/RNase-Free Distilled Water (Invitrogen 10977015) to give a final volume of 100 μL. These mixtures were incubated for 30 minutes at room temperature, followed by dilution into 1×DMEM (Gibco 11965092, 1.9 mL). For cytotoxicity assays, N-X-Phe-DAP derivatives (10 μL, 1 mM) were diluted into 1×DMEM (Gibco 11965092, 1.9 mL).
N-X-Phe-DAP-siRNA Cellular Delivery Analysis A549 lung adenocarcinoma cells (ATCC #) were seeded at a density of 1.05×10^5 cells/well in a glass bottom 24-well plate (500 μL) and grown to 70-90% confluency. Cells were washed with 1× phosphate buffered saline (PBS, Gibco 14190144), samples were added (500 μL/well), and incubated for 4 h at 37° C., 5% C02. After 4 h, media was removed, cells were washed with 1×PBS, and fixed with 4% paraformaldehyde solution. After 10 min, cells were washed twice with 1×PBS and incubated with DAPI stain (1 μg/mL) in the dark. After 5 min, cells were washed three times with 1×DPBS and stored at −20° C. until imaging. A Nikon T1 epifluorescence microscope was used for fluorescent imaging. Images were collected at 40× magnification using NIS-Elements Viewer (Nikon) software. All images were processed in Adobe Photoshop by selecting “image” then “Adjustments” then “Levels”. In the pop-up window, “Channel” was selected followed by “Green” and Output levels were adjusted with an upper limit of 200. In the sample pop-up window under “Options” the “Enhance Per Channel Contrast” was selected under algorithms.

| Kd (FITC-siRNA) [µM] | SMILES | FITC-siRNA delivery compared with Lipofectamine [1] |
| --- | --- | --- |
| 293 | NCCCNC(=O)[C@H](Cc1ccccc1)NC(=O)Cc1cccc2ccccc12 [1-Nap-Phe-DAP] | improved siRNA delivery |
| 186 | NCCCNC(=O)[C@H](Cc1ccccc1)NC(=O)Cc1ccc2ccccc2c1 [2-Nap-Phe-DAP] | on par with Lipofectamine |
| 97 | NCCCNC(=O)[C@H](Cc1ccccc1)NC(=O)OCc1ccccc1 [Cbz-Phe-DAP] | improved siRNA delivery |
| 179 ± 8 | NCCCNC(=O)[C@H](Cc1ccccc1)NC(=O)C1CCCCC1 [Cyc-Phe-DAP] | on par with Lipofectamine |
| 307 ± 34 | NCCCNC(=O)[C@H](Cc1ccccc1)NC(=O)CC1c2ccccc2-c2ccccc21 [Fm-Phe-DAP] | on par with Lipofectamine |
| 131 | NCCCNC(=O)[C@H](Cc1cccc(F)c1)NC(=O)OCC1c2ccccc2-c2ccccc21 [Fmoc-3F-Phe-DAP] | on par with Lipofectamine |
| 217 | NCCCNC(=O)[C@H](Cc1c(F)c(F)c(F)c(F)c1F)NC(=O)OCC1c2ccccc2-c2ccccc21 [Fmoc-F5-Phe-DAP] | improved siRNA delivery |
| 159 | NCCCNC(=O)[C@H](Cc1ccccc1)NC(=O)OCC1c2ccccc2-c2ccccc21 [Fmoc-Phe-DAP] | improved siRNA delivery |
| 183 ± 9 | CCCCCCC(=O)N[C@@H](Cc1ccccc1)C(=O)NCCCN [Hex-Phe-DAP] | improved siRNA delivery |
| 32 | NCCCNC(=O)[C@H](Cc1ccccc1)NC(=O)CCCc1ccc2ccc3cccc4ccc1c2c34 [Pyr-Phe-DAP] | improved siRNA delivery |
